The assay concerns HT-29 human colon tumor cells. The assay is described as follows: Human colorectal adenocarcinoma HT-29 xenograft in vivo assay. The settings on record: female NU/NU mice; for in vivo Antitumor activity (tumor wt day-50/tumor wt day-14): HT-29 s.c. xenograft, optimal dose, subcutaneously twice a week for 5 weeks from day 14; for effect on tumor (stasis or regression): HT-29 xenograft, after 5 weeks of treatment (day 50), ratio of 1 = stasis, less than 1 = regression. As for the experimental part:
Female NU/NU mice weighing 21 ± 2g, are used for this modified version of the test described by B.C. Giovanella, et al., Science, 246 1046 (1989). Control and test animals are injected subcutaneously in the sub-scapular region with a suspension of 10⁶ viable HT-29 human colon tumor cells on day 0. Tumors are allowed to grow for 2 weeks prior to drug administration. For each drug, several doses are chosen based on its in vitro activity against topoisomerase I. Each dose level group contains 8 animals. The test compounds are prepared in either 0.1 M acetate buffer, pH 5 (vehicle "a") or 87.5% phosphate buffered saline, 12.375% dimethylsulfoxide, and 0.125% Tween 80 (trademark of ICI America for polyoxyethylenesorbitan monooleate) (vehicle "b") and are administered subcutaneously twice a week for 5 weeks beginning on day 14. Doses are given on a mg/kg basis according to the mean body weight for each cage.
Tumor weight is calculated from two perpendicular caliper measurements of the tumor using the formula, tumor weight = length x width² ÷ 2 [formula] in millimeters. For each animal, tumor weight is monitored over the course of the experiment. For each group, the results are expressed as the ratio of the mean tumor weight immediately after 5 weeks of treatment (day 50) divided by the mean tumor weight immediately before treatment (day 14). […] The criterion for antitumor activity is at least 50% inhibition of tumor growth after 5 weeks of dosing (day 50), giving a ratio of less than or equal to ten. TABLE B
On the technique in general: In xenograft studies the graft and the host belong to different species.

[1] abbreviates: vehicle a: 0.1 M acetate buffer, pH 5.
Setting [2] is: vehicle b: 87.5% phosphate buffered saline, 12.375% dimethylsulfoxide, 0.125% Tween 80.

In the case of `CCN(CC)Cc1c2c(nc3cc4c(cc13)OCCO4)-c1cc3c(c(=O)n1C2)COC(=O)[C@]3(O)CC` [Example 14, 7-Diethylaminomethylene-10, 11-ethylenedioxy-20(S)-camptothecin], the “in vivo Antitumor activity (tumor wt day-50/tumor wt day-14)” value (from here on “in vivo Antitumor activity”) under setting [1] is listed as 2.0^a. Take `CC[C@@]1(O)C(=O)OCc2c1cc1n(c2=O)Cc2c-1nc1cc3c(cc1c2CN1CCN(C)CC1)OCCO3` [Example 11, 7-(4-methylpiperazinomethylene)-10, 11-ethylenedioxy-20(S)-camptothecin]: the “effect on tumor (stasis or regression)” value is “tumor regression”. In addition, the “in vivo Antitumor activity” value under setting [1] is reported as 0.6^a. Take `CC[C@@]1(O)C(=O)OCc2c1cc1n(c2=O)Cc2c-1nc1cc3c(cc1c2CN(C)C)OCCO3` [Example 4, 7-Dimethylaminomethylene-10, 11-ethylenedioxy-20(S)-camptothecin]: the “effect on tumor (stasis or regression)” value was “tumor stasis”. In the case of `CC[C@@]1(O)C(=O)OCc2c1cc1n(c2=O)Cc2c-1nc1cc3c(cc1c2CN(C)C)OCO3` [Example 2, 7-Dimethylaminomethylene-10, 11-methylenedioxy-20(S)-camptothecin], the “in vivo Antitumor activity” value under setting [2] is 1.8^b.

As for `CC[C@@]1(O)C(=O)OCc2c1cc1n(c2=O)Cc2c-1nc1cc3c(cc1c2CN1CCC1)OCO3` [Example 20, 7-Azetidinomethylene-10, 11-methylenedioxy-20(S)-camptothecin], the “in vivo Antitumor activity” value under setting [1] is on record as 1.5^a.

With `CC[C@@]1(O)C(=O)OCc2c1cc1n(c2=O)Cc2c-1nc1cc3c(cc1c2CN1CCN(C)CC1)OCO3` [Example 23, 7-(4-Methylpiperazinomethylene)-10, 11-methylenedioxy-20(S)-camptothecin], the “effect on tumor (stasis or regression)” value was “tumor regression”. For the same compound, the “in vivo Antitumor activity” value under setting [1] was 0.5^a. Regarding `CC[C@@]1(O)C(=O)OCc2c1cc1n(c2=O)Cc2c-1nc1cc3c(cc1c2CN1CCC1)OCCO3` [Example 22, 7-Azetidinomethylene-10, 11-ethylenedioxy-20(S)-camptothecin], the “in vivo Antitumor activity” value under setting [1] is 1.6^a. For the compound `CC[C@@]1(O)C(=O)OCc2c1cc1n(c2=O)Cc2c-1nc1cc3c(cc1c2CN1CCOCC1)OCCO3` [Example 6, 7-Morpholinomethylene-10, 11-ethylenedioxy-20(S)-camptothecin], the “effect on tumor (stasis or regression)” value was “tumor stasis”. For the same compound, under setting [2], the “in vivo Antitumor activity” value is on record as 1.0^b.
